Consider 25 compounds from patent US20090143392A1, “Methods of Treating Obesity and Metabolic Disorders” (ELBION GMBH, priority 2007, published 2009).

In data set [1] the target is T1, PDE10 from rat striatum (Rattus norvegicus, UniProt Q9QYJ6).
T1 construct: 0.5 g of the isolated and frozen striatum was homogenised; from tissue; host or cells: rat striatum, ion-exchange FPLC fractions with PDE10 activity
T1 sequence (Q9QYJ6 1-794): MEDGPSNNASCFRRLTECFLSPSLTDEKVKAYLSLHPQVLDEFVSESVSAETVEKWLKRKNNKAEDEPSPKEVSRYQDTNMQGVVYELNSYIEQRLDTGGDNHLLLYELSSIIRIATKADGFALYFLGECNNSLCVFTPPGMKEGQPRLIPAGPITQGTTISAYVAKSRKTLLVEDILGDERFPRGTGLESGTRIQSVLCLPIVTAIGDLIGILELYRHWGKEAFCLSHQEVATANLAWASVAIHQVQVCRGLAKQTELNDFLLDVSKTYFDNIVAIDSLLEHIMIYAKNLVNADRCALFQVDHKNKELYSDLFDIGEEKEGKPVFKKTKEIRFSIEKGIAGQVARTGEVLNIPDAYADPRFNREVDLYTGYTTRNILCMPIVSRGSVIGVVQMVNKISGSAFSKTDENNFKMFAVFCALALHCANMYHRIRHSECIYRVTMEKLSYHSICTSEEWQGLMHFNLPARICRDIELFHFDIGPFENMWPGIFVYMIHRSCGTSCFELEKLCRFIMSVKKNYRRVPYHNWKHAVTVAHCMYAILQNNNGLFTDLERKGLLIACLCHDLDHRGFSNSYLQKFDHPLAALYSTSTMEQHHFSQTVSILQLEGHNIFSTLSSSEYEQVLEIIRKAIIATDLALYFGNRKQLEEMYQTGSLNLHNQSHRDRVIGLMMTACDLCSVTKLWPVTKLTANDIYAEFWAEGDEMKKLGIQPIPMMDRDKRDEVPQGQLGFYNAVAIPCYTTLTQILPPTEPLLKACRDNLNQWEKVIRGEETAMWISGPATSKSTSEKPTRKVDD
The experiment in a line: Inhibition of PDE10 from rat striatum. The class given is biochemical. The settings on record: 0.1 μM [3H]-cAMP, 37° C., 30 minutes. Here is the method: (§1) Phosphodiesterase isoenzyme 10 (PDE10) activity was determined in preparations of rat, pig and guinea pig striatum respectively. Striatum from male Wistar rats (180-200 g), male hybrid pigs (150 kg) and male guinea pigs (CRL (HA), 500 g) respectively were collected and frozen at −70° C.
(§2) For the enzymatic testing of PDE10 activity 0.5 g of the isolated and frozen striatum was homogenised in 10 ml 50 mM Tris/Mg-buffer at 4° C. and centrifuged for one hour at 100000 g.
(§3) Nonspecific activity was tested without the enzyme. […] For determination of IC50 values the Hill-plot, 2-parameter-model, was used.

In data set [2] the target is T2, PDE10 from pig striatum (Sus scrofa, UniProt A0A287B941).
T2 construct: "Striatum from male hybrid pigs (150 kg)"
Nature of the data set: Inhibition of PDE10 from pig striatum. The data set is classed as biochemical. The conditions noted are these: 0.1 μM [3H]-cAMP, 37° C., 30 minutes. Here is the method: Phosphodiesterase isoenzyme 10 (PDE10) activity was determined in preparations of human recombinant PDE10A and PDE10 from pig striatum, respectively.
Striatum from male hybrid pigs (150 kg) were collected and frozen at −70° C.
At the day of preparation 0.5 g striatum was homogenised in 10 ml 50 mM Tris/Mg-buffer at 4° C. and centrifuged for one hour at 100000 g.
as §3, §1, §2

The target of data set [3] is PDE10 from guinea pig striatum (Cavia porcellus, UniProt A0A286XN47). Nature of the data set: Inhibition of PDE10 from guinea pig striatum. The class given is biochemical. The conditions noted are these: 0.1 μM [3H]-cAMP, 37° C., 30 minutes. Here is the method:
as §1, §2, §3

Data set [4] concerns MK-801-induced psychosis. The experiment in a line: MK-801-induced psychosis: hyperactivity and stereotyped sniffing. The class given is in vivo. The settings on record: female Wistar rats, MK-801 0.1 mg/kg i.p. 10 min before test, compound 30 min prior, recorded 1 h; for dose that significantly reversed MK-801-induced hyperactivity / dose that significantly reversed MK-801-induced stereotyped sniffing: p.o. Here is the method: Female Wistar rats (Crl: (WI) BR, Charles River, Sulzfeld, Germany) weighing 150 to 180 g were used for the MK-801-induced psychosis. Animals were housed under standard conditions in groups of five on a 12 h light/dark cycle (light on at 0600 h) with ad libitum access to food (Pellets, ssniff M/R 15, Spezialdiät GmbH, Soest/Westfalen) and water.
MK-801 (dizocilpine, MW 337.37) was obtained by Tocris, distributed by Biotrend Chemikalien GmbH, Köln, Germany.
Hydroxyethylcellulose was solved in distilled water.
MK-801 was solved in saline so that an administration volume of 0.5 ml/100 g was reached. The suspensions and solution were placed on a magnetic stirrer before and during dosing procedures.
The behaviour induced by the NMDA antagonist MK-801 is generally accepted as a rat model of psychosis. MK-801 induces stereotyped sniffing, hyperactivity and ataxia in rats after intraperitoneal administration.
Locomotor activity of the rats was recorded by the MotiTest Apparatus (TSE, Bad Homburg, Germany). The test area consisted of a squared arena (45×45 cm) with protective plexiglass walls (20 cm of height) where rats could freely move. Horizontal movements were recorded by 32 infrared photocells arranged along the bottom of each wall of the arena. The activity [sec] was measured by the computer program “ActiMot” (TSE, Bad Homburg, Germany).
Stereotyped sniffing was scored by the experimenter every five minutes for one hour (12 intervals) according to the method described by Andine et al. (1999). The scores of the 12 intervals were summed up at the end of the recording time.
The day of experiment the female rats were placed in the laboratory and received the test compound or vehicle at the appropriate time prior to test. MK-801 0.1 mg/kg was intraperitoneally administered 10 minutes prior to test.
At the beginning of the test the rats were placed in the centre of the squared arena of the MotiTest apparatus. Behaviour of the rats was recorded for one hour. After each run animals were removed and the boxes thoroughly cleaned and dried.
Results were analysed by one way analysis of variance (ANOVA). Tukey test was used for individual comparison. P<0.05 was regarded as significant.

PDE10 from guinea pig striatum, sequence (A0A286XN47 1-773): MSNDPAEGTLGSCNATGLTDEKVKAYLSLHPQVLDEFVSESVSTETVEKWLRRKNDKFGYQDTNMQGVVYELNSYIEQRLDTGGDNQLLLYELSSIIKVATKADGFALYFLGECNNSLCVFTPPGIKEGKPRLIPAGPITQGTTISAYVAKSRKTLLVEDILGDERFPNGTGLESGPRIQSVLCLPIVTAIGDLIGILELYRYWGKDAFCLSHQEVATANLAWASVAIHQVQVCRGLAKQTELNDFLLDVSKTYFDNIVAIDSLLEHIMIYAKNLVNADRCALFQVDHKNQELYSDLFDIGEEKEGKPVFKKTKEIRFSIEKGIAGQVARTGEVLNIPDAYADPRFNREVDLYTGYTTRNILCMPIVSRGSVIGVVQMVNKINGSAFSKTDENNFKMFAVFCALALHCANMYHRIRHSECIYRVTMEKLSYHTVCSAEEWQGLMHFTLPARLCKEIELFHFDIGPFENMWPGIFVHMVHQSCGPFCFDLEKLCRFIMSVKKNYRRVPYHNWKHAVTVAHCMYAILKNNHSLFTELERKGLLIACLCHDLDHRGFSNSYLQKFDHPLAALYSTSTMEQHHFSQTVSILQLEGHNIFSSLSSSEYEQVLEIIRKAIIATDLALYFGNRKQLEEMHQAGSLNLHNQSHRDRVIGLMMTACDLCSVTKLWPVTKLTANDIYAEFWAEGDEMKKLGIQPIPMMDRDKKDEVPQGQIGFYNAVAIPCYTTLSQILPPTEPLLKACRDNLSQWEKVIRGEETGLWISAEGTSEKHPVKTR

As to “1-ethyl-4-(N-formyl-amino)-8-methoxy-3-methyl-imidazo[1,5-a]pyrido[3,2-e]pyrazine [Example 36b]”, the IC50 was 241 nM in data set [1] and 80 nM in data set [2].
“3,4-dimethyl-8-(2-propyl-4-methyl-imidazol-1-yl)-methoxy-1-propyl-imidazo[1,5-a]pyrido[3,2-e]pyrazine [Example 58a]”: the IC50 worked out at 4 nM in data set [3] and 2 nM in data set [2].
On to “3,4-dimethyl-8-(piperidin-1-yl)-methoxy-1-propyl-imidazo[1,5-a]pyrido[3,2-e]pyrazine [Example 55a]”, for which, in data set [4], the “dose that significantly reversed MK-801-induced hyperactivity” value came out at 30 mg/kg and the “dose that significantly reversed MK-801-induced stereotyped sniffing” value is given as 30 mg/kg. Further, 14 nM corresponded to half-maximal inhibition in data set [2] (IC50).
Regarding “3,4-dimethyl-8-methoxy-1-phenyl-imidazo[1,5-a]pyrido[3,2-e]pyrazine [Example 47a]”, the IC50 in data set [3] is 15 nM; in data set [2] it was 6 nM.
In data set [1], “4-(N-acetyl-amino)-1-ethyl-8-methoxy-3-methyl-imidazo[1,5-a]pyrido[3,2-e]pyrazine [Example 40b]” registered an IC50 of 220 nM.
Turning to “4-(N-acetyl-amino)-8-methoxy-3-methyl-1-phenyl-imidazo[1,5-a]pyrido[3,2-e]pyrazine [Example 42b]”, the IC50 in data set [1] is 95 nM; in data set [2], 41 nM.
With “4-(N-formyl-amino)-8-methoxy-3-methyl-1-propyl-imidazo[1,5-a]pyrido[3,2-e]pyrazine [Example 37b]”, the IC50 came out at 50 nM in data set [1] and 29 nM in data set [2].
Consider “4-amino-1-(2-chloro-phenyl)-8-methoxy-3-methyl-imidazo[1,5-a]pyrido[3,2-e]pyrazine [Example 11b]”, for which, in data set [4], the “dose that significantly reversed MK-801-induced hyperactivity” value is no less than 0.5 mg/kg and the “dose that significantly reversed MK-801-induced stereotyped sniffing” value is recorded as no less than 0.5 mg/kg. In addition, half-maximal inhibition in data set [2] (IC50) was put at 0.5 nM.
As to “4-amino-3-methyl-1-propyl-imidazo[1,5-a]pyrido[3,2-e]pyrazine [Example 4b]”, the IC50 in data set [1] amounted to 57 nM; in data set [2] it was 27 nM.
“4-amino-8-methoxy-3-methyl-1-phenyl-imidazo[1,5-a]pyrido[3,2-e]pyrazine [Example 10b]”: the IC50 worked out at 5 nM in data set [1] and 3 nM in data set [2].
As for “4-amino-8-methoxy-3-methyl-1-propyl-imidazo[1,5-a]pyrido[3,2-e]pyrazine [Example 1b]”, in data set [4], the “dose that significantly reversed MK-801-induced hyperactivity” value is given as no less than 10 mg/kg and the “dose that significantly reversed MK-801-induced stereotyped sniffing” value is recorded as no less than 10 mg/kg.
In the case of “4-chloro-8-methoxy-3-methyl-1-propyl-imidazo[1,5-a]pyrido[3,2-e]pyrazine [Intermediate A1]”, the figures for the IC50 in data set [1] and in data set [2] were 8 nM and 4 nM, respectively.
In turn, “4-cyano-8-methoxy-3-methyl-1-propyl-imidazo[1,5-a]pyrido[3,2-e]pyrazine [Example 29a]” yielded an IC50 in data set [3] of 18 nM. In addition, in data set [4], the “dose that significantly reversed MK-801-induced stereotyped sniffing” value is recorded as no less than 5 mg/kg.
Take “4-ethoxycarbonylamino-8-methoxy-3-methyl-1-propyl-imidazo[1,5-a]pyrido[3,2-e]pyrazine [Example 63a]”: the IC50 in data set [1] turned out to be 563 nM; in data set [2] it was 189 nM.
Turning to “8-methoxy-3-methyl-1-propyl-imidazo[1,5-a]pyrido[3,2-e]pyrazine [Example 35a]”, in data set [4], the “dose that significantly reversed MK-801-induced hyperactivity” value is 30 mg/kg and the “dose that significantly reversed MK-801-induced stereotyped sniffing” value is recorded as no less than 30 mg/kg. Further, the IC50 in data set [1] is 61 nM. This compound also displayed an IC50 in data set [2] of 40 nM.
For “8-methoxy-3-methyl-4-(N-propionyl-amino)-1-propyl-imidazo[1,5-a]pyrido[3,2-e]pyrazine [Example 43b]”, the IC50 was 2410 nM in data set [1] and 896 nM in data set [2].
For the compound `CCCc1nc(C)c2c(N(S(C)(=O)=O)S(C)(=O)=O)nc3ccc(OC)nc3n12` [Example 70a, 4-(N,N-bis-methylsulfonyl)-amino-8-methoxy-3-methyl-1-propyl-imidazo[1,5-a]pyrido[3,2-e]pyrazine], in data set [1], the IC50 amounted to 72 nM.
With `CCCc1nc(C)c2n1-c1nc(OC)ccc1NC2` [Example 91a, 8-methoxy-3-methyl-1-propyl-4,5-dihydro-imidazo[1,5-a]pyrido[3,2-e]pyrazine], the melting point lay within 157 to 160 °C. In data set [4] (i.p.), the “dose that significantly reduced MK-801-induced hyperactivity” value is reported as no less than 15 mg/kg and the “dose that significantly reduced MK-801-induced stereotyped sniffing” value was no less than 15 mg/kg. Moreover, the IC50 in data set [1] is 159 nM. The IC50 in data set [2] is 108 nM.
In the case of `CCCc1nc(C)c2n1-c1nc(OC)ccc1N(C(C)=O)C2` [Example 95a, 5-acetyl-8-methoxy-3-methyl-1-propyl-4,5-dihydro-imidazo[1,5-a]pyrido[3,2-e]pyrazine], the “dose that significantly reversed MK-801-induced hyperactivity” value in data set [4] is reported as 30 mg/kg. The “dose that significantly reversed MK-801-induced stereotyped sniffing” value in data set [4] was 30 mg/kg. For the same compound, the IC50 was found to be 335 nM in data set [1] and 222 nM in data set [2].
Turning to `CCc1nc(C)c2c(Cl)nc3cccnc3n12` [Intermediate A11], the melting point fell in the range of 117 to 120 °C. Besides, the IC50 in data set [1] came out at 171 nM. For the same compound, the IC50 in data set [2] is 97 nM.
Take `CCc1nc(C)c2c(Cl)nc3ccc(N(CC)CC)nc3n12` [Intermediate A20]: the melting point fell in the range of 145 to 150 °C. In addition, the IC50 in data set [2] turned out to be 11 nM.
`CCc1nc(C)c2c(Cl)nc3ccc(N4CCN(C)CC4)nc3n12` [Intermediate A22] displayed a melting point of 283 to 285 °C. In addition, half-maximal inhibition in data set [2] (IC50) required 52 nM.
In turn, `CCc1nc(C)cn1-c1ccc2nc(Cl)c3c(C)nc(CC)n3c2n1` [Intermediate A23] yielded a melting point of 138 to 141 °C. The IC50 in data set [2] stood at 3 nM.
Taken in the same sequence, the figures for `CCCc1nc(C)cn1-c1ccc2nc(Cl)c3c(C)nc(CCC)n3c2n1` [Intermediate A24] were 134 to 136 °C and 2 nM.
In the case of `CCc1nc(C)c2c(Br)nc3ccc(O)nc3n12` [Intermediate A26], the melting point was greater than 360 °C. In data set [2], inhibition was half-maximal at 46 nM (IC50).
